Assay: GSH arylation rate constants (NMR; UV-vis for fast warheads)
Format: physicochemical
Set-up: key to rate constant (k) for the reaction with GSH / k: NR = no reaction
Details: for k: Table S8, rate constants obtained at pH = 7; for k change (vs ref): ratio to rate constant of 4q, acceleration (+) or deceleration (-); for reactivity with GSH (in words): up to 6 h
Text: We employed nuclear magnetic resonance (NMR) and UV–vis to quantify the reactivity of our 2-SP derivatives and other representative electrophiles (Figure 2) against cysteine. NMR allowed straightforward determination of reaction rate constants through dual monitoring of the consumption of the warhead and formation of the product by integration of their respective NMR signals (Figures S1–S3). It simultaneously provided a direct readout on reaction specificity and hydrolytic stability of the warhead. All measurements were carried out in KPi buffer in the presence of 5% d^6-dmso, which is generally well-tolerated by a wide range of proteins in in vitro studies. N-acetylcysteine methylester (NACME) and L-glutathione (GSH) are useful model cysteine nucleophiles for in vitro studies of electrophilic agents.[32] Mixing reference electrophile 2-methylsulfonylpyrimidine (4q) with NACME or GSH in a 1:10 ratio (pseudo-first-order conditions) allowed extraction of accurate and reproducible second order rate constants (k).
Figure 3 In vitro determination of electrophilic reactivity of compounds. (A) NMR assay setup for warhead/GSH reaction rate constant determination and chemoselectivity monitoring, over a 6 h time scale. Purple bead = GSH. Hydrolytic stability was determined in the same way over 36 h. d^4-Trimethylsilylpropanoate (TMSP, blue box) was used as an internal standard for monitoring the warhead solubility. Second-order reaction rate constants (k) were obtained from their pseudo-first-order counterparts (k′), by time-dependent normalized integration of the disappearing warhead signals. […] (B) Experimental second-order rate constants (y axis, log10 scale) for the reaction of representative 2-SP derivatives (left, 11 out of ca. 40 examples) and previously reported heteroarylsulfones (right) with GSH in a KPi buffer, pH 7.0, 20 °C. All rate constants were calculated as an average of at least two independent measurements. Numerical values and standard deviations at both pH 7.0 and 6.5, along with a full list of 2-SPs and other electrophile types tested, are presented in Tables S2–S6 and Figure S4. The horizontal dashed line marks the reaction rate of 2-methylsulfonylpyrimidine at pH 7.0, as a reference when comparing with other reagents (see main text).
To establish an accurate structure–reactivity profile of 2-SP reagents, we systematically determined their reaction rate constants for the arylation of GSH by NMR, at pH 7.0 and 6.5. This was a prerequisite to (i) quantify the influence of substitution on reaction rates; (ii) accurately assess the tunability and chemoselectivity of 2-SPs for cysteine arylation; (iii) determine the influence of pH on the reaction rates to further inform on the precise reaction mechanism; and (iv) benchmark the overall performance of 2-SPs with those of previously reported fast reacting heteroarylsulfones and other common cysteine reactive warheads (Figure 2C,D).

[1] = pH 6.5, by NMR, KPi buffer, 5% DMSO-d6
[2] = pH 7.0, by NMR, KPi buffer, 5% DMSO-d6

Compound	rate constant (k) for the reaction with GSH [1]	rate constant (k) for the reaction with GSH [2]	also measured
CSc1ncc(Br)c(C(=O)O)n1 [2i]	NR	NR	–
CSc1nccc(C(N)=O)n1 [2j]	NR	NR	–
COC(=O)c1ccnc(SC)n1 [2k]	NR	NR	–
CSc1nccc(C(F)(F)F)n1 [2l]	NR	NR	–
CSc1ncc([N+](=O)[O-])cn1 [2m]	NR	NR	–
COc1cnc(SC)nc1 [2n]	NR	NR	–
CSc1ncc(C)cn1 [2o]	NR	NR	–
CSc1ncccn1 [2q]	NR	NR	k: NR
CSc1ncc(F)cn1 [2r]	NR	NR	–
CSc1ncc(Cl)cn1 [2s]	NR	NR	–
CSc1ncc(Br)cn1 [2t]	NR	NR	–
CSc1ncc(C(F)(F)F)cn1 [2x]	NR	NR	–
COC(=O)c1cnc(SC)nc1 [2y]	NR	Ca. 0.020 mM-1.s-1	–
CC(C)(C)Sc1ncccn1 [3a]	–	NR	–
CCCCSc1ncccn1 [3c]	–	NR	–
c1ccc(Sc2ncccn2)cc1 [3d]	–	NR	–

Compound	rate constant (k) for the reaction with GSH [1]	rate constant (k) for the reaction with GSH [2]	also measured
CS(=O)(=O)c1ncc(Cl)c(C(=O)O)n1 [4h]	–	–	k change (vs ref) (pH 7.0): +7 fold
CS(=O)(=O)c1ncc(F)cn1 [4r]	Multiple	Multiple	–
CS(=O)(=O)c1nc2ccc([N+](=O)[O-])cc2s1 [compound 10, 2-(methylsulfonyl)-6-nitrobenzo[d]thiazole, reference compound]	–	–	rate constant (k) for the reaction with GSH (pH 6.5, measured by UV titrations): 290 ± 130 M⁻¹ s⁻¹; second order rate constant k with GSH (pH 7.0, KPi buffer): ≈ 1200 M^–1 s^–1; k change (vs ref) (pH 7.0): +44,000 fold
Fc1ncccn1 [compound 13, reference compound]	–	NR	k: NR
Brc1ncccn1 [compound 14, reference compound]	–	–	k: NR
Oc1ncccn1 [compound 16, reference compound]	–	NR	–
Nc1ncccn1 [compound 17, reference compound]	–	NR	–
CS(=O)(=O)c1cnccn1 [compound 18]	NR	NR	reactivity with GSH (in words) (KPi buffer): completely switched off reactivity
O=C1C=CC(=O)N1Cc1ccccc1 [compound 21, N-benzylmaleimide, reference compound]	–	Multiple products	reactivity with GSH (in words) (KPi buffer): heterogeneous mixture of succinimidyl products; second order rate constant k with GSH (pH 7.0, KPi buffer): > 0.5 M^–1 s^–1
C=CC(=O)Nc1ccccc1 [compound 22, reference compound]	–	NR	reactivity with GSH (in words) (KPi buffer): none
OB1OCc2ccccc21 [compound 23, reference compound]	–	–	rate constant (k) for the reaction with GSH (pH 7): NR
c1ccc(C2CO2)cc1 (stereo not shown) [compound 24, reference compound]	–	NR	reactivity with GSH (in words) (KPi buffer): none
O=C(c1ccccc1)C(F)(F)F [compound 25, reference compound]	–	NR	reactivity with GSH (in words) (KPi buffer): none
O=S(=O)(F)c1ccccc1 [compound 26, reference compound]	–	NR	reactivity with GSH (in words) (KPi buffer): none
CC1(C)S[C@@H]2[C@H](N)C(=O)N2[C@H]1C(=O)O [compound 27, reference compound]	–	NR	reactivity with GSH (in words) (KPi buffer): none
